Drawing on patent US9856279B2 (AGIOS PHARMACEUTICALS, INC, priority 2011, dated 2018), this text covers IC50 for 10 compounds.

Molecules are shown by their SMILES.

One test deals with IDH1 R132H (Homo sapiens, UniProt O75874, R132H). Description: Assay for IDH1 R132H inhibitors (NADPH/aKG, resazurin detection). Format: biochemical. Conditions: enzyme assay of Example 12; read-out: IDH1R132H IC50. An outline of the steps: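 Read-out is resorufin fluorescence (Ex544/Em590) 5 min after adding a 30 μM resazurin detection mix. Before that, mutant enzyme (0.2 μg/ml in its mix) ran 50 min at room temperature with compound, 8 uM NADPH and 2 mM aKG (mix levels) in Tris pH 7.5 with NaCl, MgCl2, BSA.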

The next test deals with HT1080 cells. The test is described as follows: Cellular assay for IDH1m inhibitors: inhibition of 2-HG production (LC-MS, 48 hours) in HT1080 cells. The conditions noted are these: Homo sapiens, HT-1080; inhibition of 2-HG production, HT1080 cells; read-out: HT1080 IC50. Format: cell-based. An outline of the steps:
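Each cell line is plated at 5000 cells/well in DMEM with 10% FBS and left overnight at 37 °C. Test compounds are then added for 48 h, after which 2-HG in the medium is determined by LC-MS; IC50 reflects 50% reduction compared with control.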

A further test has as its system U87MG cells. The test is described as follows: Cellular assay for IDH1m inhibitors: inhibition of 2-HG production (LC-MS, 48 hours) in U87MG cells. Format: cell-based. The conditions noted are these: Homo sapiens, U-87 MG, inhibition of 2-HG production, U87R132H cells; read-out: U87R132H IC50. On the procedure:
Cells (e.g., HT1080 or U87MG) and are grown in T125 flasks in DMEM containing 10% FBS, 1× penicillin/streptomycin and 500 ug/mL G418. They are harvested by trypsin and seeded into 96 well white bottom plates at a density of 5000 cell/well in 100 ul/well in DMEM with 10% FBS. No cells are plates in columns 1 and 12. Cells are incubated overnight at 37° C. in 5% CO2. The next day compounds are made up at 2× concentration and 100 ul are added to each cell well. The final concentration of DMSO is 0.2% and the DMSO control wells are plated in row G. The plates are then placed in the incubator for 48 hours. At 48 hours, 100 μl of media is removed from each well and analyzed by LC-MS for 2-HG concentrations. The cell plate is placed back in the incubator for another 24 hours. At 72 hours post compound addition, 10 mL/plate of Promega Cell Titer Glo reagent is thawed and mixed. The cell plate is removed from the incubator and allowed to equilibrate to room temperature. Then 100 ul of reagent is added to each well of media. The cell plate is then placed on an orbital shaker for 10 minutes and then allowed to sit at room temperature for 20 minutes. The plate is then read for luminescence with an integration time of 500 ms.
The IC50 for inhibition of 2-HG production (concentration of test compound to reduce 2HG production by 50% compared to control) in these two cell lines for various compounds of formula I is set forth in Table 4 above.

Sequence of IDH1 R132H (O75874 whole entry R132H): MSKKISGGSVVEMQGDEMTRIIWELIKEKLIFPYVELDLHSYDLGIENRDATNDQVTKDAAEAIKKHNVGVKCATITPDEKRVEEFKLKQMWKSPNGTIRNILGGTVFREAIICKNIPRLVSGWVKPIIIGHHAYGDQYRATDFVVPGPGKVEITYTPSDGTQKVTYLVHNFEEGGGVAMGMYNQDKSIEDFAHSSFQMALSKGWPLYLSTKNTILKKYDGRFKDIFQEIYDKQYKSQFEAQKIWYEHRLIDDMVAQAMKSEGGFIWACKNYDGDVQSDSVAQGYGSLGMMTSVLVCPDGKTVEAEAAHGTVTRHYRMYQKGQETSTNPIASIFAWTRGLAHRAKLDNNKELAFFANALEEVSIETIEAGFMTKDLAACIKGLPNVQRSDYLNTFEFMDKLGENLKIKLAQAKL

On to `Cc1cc2c(-c3cc(C#N)c(N4CCN(C(=O)C5CC5)[C@H](C5CC5)C4)nc3C3CC3)cccc2cn1` [Compound 458, (R)-2-(4-(cyclopropanecarbonyl)-3-cyclopropylpiperazin-1-yl)-6-cyclopropyl-5-(3-methylisoquinolin-5-yl)nicotinonitrile], for which the IC50 (usually the concentration that gives 50% inhibition) at IDH1 R132H was under 500 nM; with HT1080 cells, 500 to 1000 nM; in the test on U87MG cells, 500 to 1000 nM.
In the case of `C#Cc1ccnc(Nc2cc(C#N)c(N3CCN(C(=O)COC)[C@H](C4CC4)C3)nc2C2CC2)c1` [Compound 750, (R)-6-cyclopropyl-2-(3-cyclopropyl-4-(2-methoxyacetyl)piperazin-1-yl)-5-(4-ethynylpyridin-2-ylamino)nicotinonitrile], the half-inhibitory concentration (IC50) at IDH1 R132H, with HT1080 cells and with U87MG cells was under 500 nM in each case.
As to `C=Cc1cc(-c2c(C3CC3)nc(N3CCN(C(=O)CCc4ccco4)[C@H](C4CC4)C3)c(C#N)c2C)ccn1` [Compound 796, (R)-2-cyclopropyl-6-(3-cyclopropyl-4-(3-(furan-2-yl)propanoyl)piperazin-1-yl)-4-methyl-2′-vinyl-3,4′-bipyridine-5-carbonitrile], the IC50 on IDH1 R132H, in the test with HT1080 cells and in the test with U87MG cells was under 500 nM in each case.
As to `C=Cc1cnc2c(-c3cc(C#N)c(N4CCN(C(=O)CCOC)[C@H](C)C4)nc3C3CC3)cccc2n1` [Compound 579, (R)-6-cyclopropyl-2-(4-(3-methoxypropanoyl)-3-methylpiperazin-1-yl)-5-(2-vinylquinoxalin-5-yl)nicotinonitrile], the half-maximal inhibitory concentration (IC50) at IDH1 R132H, in the test with HT1080 cells and with U87MG cells was under 500 nM each time.
With `N#Cc1cc(Nc2ccnc3ccccc23)c(C2CC2)nc1N1CCN(C(=O)C2CC2)[C@H](C2CC2)C1` [Compound 528, (R)-2-(4-(cyclopropanecarbonyl)-3-cyclopropylpiperazin-1-yl)-6-cyclopropyl-5-(quinolin-4-ylamino)nicotinonitrile], the values for the IC50 at IDH1 R132H, with HT1080 cells and in the test on U87MG cells were under 500 nM, 500 to 1000 nM and under 500 nM, respectively.
Turning to `C=Cc1cc(-c2c(C3CC3)nc(N3CCN(C(=O)C[C@H]4CCO4)[C@H](C4CC4)C3)c(C#N)c2C)cnn1` [Compound 785, 6-cyclopropyl-2-((R)-3-cyclopropyl-4-(2-((R)-oxetan-2-yl)acetyl)piperazin-1-yl)-4-methyl-5-(6-vinylpyridazin-4-yl)nicotinonitrile], the IC50 on IDH1 R132H, in the test with HT1080 cells and in the test on U87MG cells was under 500 nM throughout.
With `N#Cc1cc(Nc2cc(C#N)c(N3CCN(C(=O)C[C@H]4CCO4)[C@H](C4CC4)C3)nc2C2CC2)ccn1` [Compound 783, 4-(5-cyano-2-cyclopropyl-6-((R)-3-cyclopropyl-4-(2-((R)-oxetan-2-yl)acetyl)piperazin-1-yl)pyridin-3-ylamino)picolinonitrile], the IC50 in the test on HT1080 cells and with U87MG cells was under 500 nM throughout.
As to `CCO[C@H]1C[C@@H]1C(=O)N1CCN(c2nc(C3CC3)c(-c3cccc4cnccc34)cc2C#N)C[C@H]1C1CC1` [Compound 518, 6-cyclopropyl-2-((R)-3-cyclopropyl-4-((1S,2S)-2-ethoxycyclopropanecarbonyl)piperazin-1-yl)-5-(isoquinolin-5-yl)nicotinonitrile], the IC50 at IDH1 R132H and in the test with U87MG cells was under 500 nM in each case.
`C=Cc1cc(-c2cc(C#N)c(N3CCN(C(=O)CCOC)[C@H](C4CC4)C3)nc2C2CC2)c2ccncc2n1` [Compound 658, (R)-6-cyclopropyl-2-(3-cyclopropyl-4-(3-methoxypropanoyl)piperazin-1-yl)-5-(2-vinyl-1,7-naphthyridin-4-yl)nicotinonitrile]: the IC50 on IDH1 R132H and in the test with U87MG cells was under 500 nM throughout.
With `C=Cc1cc(-c2cc(C#N)c(N3CCN(C(=O)C4CC4)[C@H](C4CC4)C3)nc2C2CC2)nc(N)n1` [Compound 700, (R)-5-(2-amino-6-vinylpyrimidin-4-yl)-2-(4-(cyclopropanecarbonyl)-3-cyclopropylpiperazin-1-yl)-6-cyclopropylnicotinonitrile], the IC50 with HT1080 cells and with U87MG cells was under 500 nM throughout.
